Our source for the TGI and GI50 values is PubChem BioAssay (NCI).

What all share (experiment): NCI-60 cell line screen, 48 h
The test system of assay [1] is ACHN renal.
Assay [2] deals with COLO 205 colon.
Assay [3] relates to HT29 colon.
Assay [4] deals with KM12 colon.
The test system of assay [5] is MALME-3M melanoma.
Assay [6] concerns NCI-H226 lung.
In assay [7] the test system is SF-539 CNS.
The test system of assay [8] is SK-OV-3 ovarian.
For assay [9], the system named is RPMI-8226 leukemia.

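Five concentrations, 48 hours, 96-well plates. GI50 is the concentration that inhibits growth by half. TGI: total growth inhibition.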

For the compound `COC(=O)C1C(C(=O)OC)C2C(=O)C3C(C(=O)OC)C(C(=O)OC)C3C(=O)C12` (centres undefined), the TGI in assay [1], in assay [2], in [3], in assay [4], in [5] and in assay [6] was more than 100 µM each time. For the same compound, the TGI in assay [7] and in assay [8] was more than 100 µM throughout.
Take `CC1=N/C(=C\c2ccc(/C=C3/N=C(C)OC3=O)cc2)C(=O)O1`: the TGI in assay [1], in assay [2], in assay [3], in assay [4], in assay [5] and in assay [9] was more than 100 µM each time. Also, the TGI in [7] and in [8] was more than 100 µM in each case.
With `CCOC(=O)c1nc(C)oc1C(F)(F)F`, the TGI in [1], in [2], in [3], in assay [4], in [5] and in assay [6] was more than 100 µM each time. The TGI in assay [7] and in assay [8] was more than 100 µM each time.
Take `COc1nc2c(c(O)c(C)c(=O)n2OC2OCC(OC(C)=O)C(OC(C)=O)C2OC(C)=O)c(=O)n1C` (centres undefined): the TGI in assay [1], in [2], in assay [3], in [4], in assay [6] and in assay [7] was more than 100 µM throughout.
In the case of `O=c1/c(=C/c2ccccc2[N+](=O)[O-])sc2nnc(-c3cccnc3)n12`, the TGI in assay [1], in assay [3], in assay [4], in assay [5], in [6] and in assay [9] was more than 100 µM each time. In assay [7], the TGI is more than 100 µM.
`CC(=O)O[C@H]1C(=O)[C@@]2(C)C([C@H](OC(=O)c3ccccc3)[C@]3(O)C[C@H](OC(=O)[C@H](O)[C@@H](NC(=O)c4ccccc4)c4ccccc4)C(C)=C1C3(C)C)[C@]1(OC(C)=O)CO[C@@H]1C[C@@H]2O` (some centres undefined): the GI50 in assay [1] was 0.945 µM; in assay [2] it was less than 0.005 µM; in [3], less than 0.005 µM; in assay [4], less than 0.005 µM; in assay [6], 0.0189 µM; in [9], less than 0.005 µM. Besides, the GI50 in assay [7] was 0.00872 µM. Besides, the TGI in assay [1] was more than 50 µM; in [2], 0.0246 µM; in assay [4] it was more than 50 µM; in assay [6] it was more than 50 µM; in assay [9], more than 50 µM; in assay [7] it was more than 50 µM. Besides, the TGI in [8] is more than 50 µM.
Take `O=C1NC2=C(CCCCC/C2=N\O)C12CCCCCC2`: the TGI in assay [1], in assay [2], in assay [3], in assay [4], in [5] and in assay [9] was more than 100 µM each time. Besides, the TGI in [7] and in assay [8] was more than 100 µM in each case.
With `COc1cc(CNc2nc3cc(N)cc(N)c3nc2-c2ccccc2)cc(OC)c1`, the GI50 is 9.42 µM in [1]; 2.38 µM in assay [2]; 8.17 µM in [3]; 4.28 µM in assay [4]; 4.86 µM in [5]; 5.29 µM in assay [7]. In addition, the GI50 in assay [8] is 15.1 µM. The TGI in assay [1] worked out at 47.3 µM; in assay [2] it was 6.04 µM; in [3] it was 44.4 µM; in [4] it was 73.3 µM; in [5] it was 33.8 µM; in assay [9], 6.22 µM. Further, the TGI in assay [7] came out at 21.4 µM; in assay [8], 54.2 µM.
On to `O=[N+]([O-])c1ccccc1C1SCc2nc3ccccc3n21` (centres undefined), for which the TGI in assay [1], in assay [3], in [4], in assay [5], in assay [7] and in assay [8] was more than 100 µM in each case.
Turning to `COc1ccc(C(=O)c2cc(OC)c(OC)c(OC)c2OC)cc1O`, the GI50 in assay [1] was 8.94 µM; in assay [2], 8.27 µM; in [3], 3.8 µM; in assay [4], 2.91 µM; in assay [5], 4.49 µM; in assay [6] it was 20.5 µM. The GI50 in [7] was 3.05 µM; in assay [8], 3.33 µM. In addition, the TGI in assay [1] is more than 100 µM; in [2], 34.3 µM; in assay [3], more than 100 µM; in assay [4], more than 100 µM; in assay [5], more than 100 µM; in assay [6], more than 100 µM. In addition, the TGI came out at 8.96 µM in assay [7] and 90.1 µM in [8].
For the compound `COC(=O)CCC(NC(=S)N/N=C/c1cccs1)C(=O)OC` (centres undefined), the TGI in assay [1], in [2], in assay [3], in [4], in [5] and in assay [6] was more than 100 µM throughout. Besides, the TGI in assay [7] and in assay [8] was more than 100 µM throughout.
